This note sets out measurements from PMC12865133, “Macrocyclic Molecular Glues for the 14‐3‐3/ChREBP Interaction: Affinity and Cooperativity in an Inverse Relationship” (Angewandte Chemie (International Ed. in English), 2025).

The target of assay [1] is T1, 14-3-3γ (Homo sapiens, UniProt P61981).
T1 sequence (P61981 1-247): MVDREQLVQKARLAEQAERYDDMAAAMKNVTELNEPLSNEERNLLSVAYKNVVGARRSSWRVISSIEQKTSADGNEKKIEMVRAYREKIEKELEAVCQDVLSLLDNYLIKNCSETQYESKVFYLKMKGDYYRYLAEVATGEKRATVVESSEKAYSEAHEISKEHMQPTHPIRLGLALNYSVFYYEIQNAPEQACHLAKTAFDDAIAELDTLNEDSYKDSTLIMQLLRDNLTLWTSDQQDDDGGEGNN
The assay can be described thus: Isothermal titration calorimetry, peptide titrated to 14-3-3γ. Type of assay: binding. As to conditions: ITC, 200 μM peptide titrated to 20 μM 14-3-3γ, mean ± SD, n=3; for ΔS: 25 mM HEPES pH 8.0, 100 mM NaCl, 10 mM MgCl2, 500 µM TCEP, 25 °C; for ΔG / ΔH: pH 8.0, 25 °C. As for the experimental part: Final dialysis fluid from protein expression was frozen as 2 mL aliquots to serve as ITC buffer (25 mM HEPES pH 8.0, 100 mM NaCl, 10 mM MgCl2, 500 µM TCEP). 14-3-3γ and peptide were dissolved and diluted in this buffer to 20 μM and 200 μM, respectively. Samples were degassed for 10 min prior to measurement at 450 mmHg. The reference cell was filled with 300 µL degassed MilliQ and the sample cell was filled with 300 µL of peptide or protein mixture. Syringe was loaded with at least 200 µL protein or peptide sample. Measurements were performed on an Affinity ITC LV (TA instruments), with injection size set to 2 µL, stirring speed of 125 rpm and temperature at 25 ̊C. The baseline was automatically adjusted with NITPIC, analysis of data was done in SEDPHAT, and images were produced with GUSSI software. Data and errors represent mean ± SD, n=3 replicates.
On the technique in general: ITC needs no label: the signal is the heat of the interaction.

Assay [2] deals with T1, 14-3-3γ. The assay can be described thus: Surface plasmon resonance, Twinstrep-tagged 14-3-3γ captured on StrepTactinXT chip. To be noted: for KD, affinity fit: SPR steady-state 1:1 fit; for kon: pH 7.4, read-out: ka, kinetic fit. For orientation: In SPR one partner is held on a chip, and binding of the other changes the refractive index at the surface.
Protocol: The SPR experiments were performed at 25 °C using a Biacore X100 (Cytiva) and a 200 nm Strep-Tactin XT derivatized linear polycarboxylate hydrogel chip, medium charge density (XanTec Bioanalytics). All proteins and peptides were dissolved in fresh running buffer prepared with ultrapure water and filtered through a 0.2 μm filter (10 mM HEPES pH 7.4, 200 mM NaCl, 50 μM EDTA, 0.005% P20). First the surface was conditioned with a 1 min injection of 3 M Guanidine HCl. The Biacore X100 was primed with running buffer. […] Flow cell 1 was left blank as a reference surface. […] Between cycles of one multi-cycle measurement, no regeneration step was performed due to the complete dissociation of the analyte. […] The data collection rate of the instrument is 1 datapoint/sec. […] All parameters were fitted using global fitting, including the Rmax, because a single immobilization was used for all analyte concentrations. The RI was set constant at 0 RU. Next to kinetic fitting, the affinity fit was made using a 1:1 binding model by plotting the response (RU) at steady state over the analyte concentration (Fig. S2).
The next assay has as its target T2, 14-3-3/ChREBP complex (Homo sapiens, UniProt P31946+Q9NP71).
T2 sequence (P31946 1-246): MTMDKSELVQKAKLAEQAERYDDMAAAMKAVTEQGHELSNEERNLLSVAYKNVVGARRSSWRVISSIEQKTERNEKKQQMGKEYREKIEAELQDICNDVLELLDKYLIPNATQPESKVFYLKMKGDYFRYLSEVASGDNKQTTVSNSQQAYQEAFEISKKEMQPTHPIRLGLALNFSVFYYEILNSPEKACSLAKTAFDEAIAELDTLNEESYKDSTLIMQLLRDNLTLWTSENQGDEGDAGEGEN
T2 sequence (Q9NP71 117-142 partner limits assumed): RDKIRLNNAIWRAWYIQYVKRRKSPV
The assay is described as follows: 2D FA titrations fitted to thermodynamic cooperativity model. To be noted: for α1 / α / Kd: 2D FA model fit; for α1: dimeric 14-3-3 model; for cooperativity (α) factor: 2D FA, 14-3-3β titrated to FITC-labeled MG with varying ChREBP peptide, KD^II fixed 1.5 µM, mean of n = 2; for Kd: KDI.

Assay [3] has as its system 14-3-3β/macrocycle complex. The assay can be described thus: FA selectivity assay, acetylated 14-3-3 client peptides titrated to 14-3-3β/macrocycle complex. Type of assay: binding, human. To be noted: acetylated client peptide titrated from 100 μM to 14-3-3β (at EC50) and FITC-labeled macrocycle (10 nM), n = 3.
For a further assay, the target named is T3, 14-3-3β (Homo sapiens, UniProt P31946).
T3 construct: The full-length human 14-3-3β and γ proteins; made in house; host or cells: Escherichia coli BL21(DE3)
T3 sequence (P31946 1-246): T2 sequence (P31946 1-246)
The assay is described as follows: FA titration of 14-3-3β to FITC-labeled macrocycle (EC50 used for selectivity assay). Type of assay: binding. To be noted: 14-3-3β concentration equal to/around EC50 for FITC-labeled macrocycle (10 nM). Here is the method:
For the 2D titrations, 14-3-3β was titrated in a 2-fold dilution series (starting at 250 µM) to a mix of fluorescein-labeled macrocycle (5 nM) against varying fixed concentrations of ChREBP (2-fold dilution starting from 20 µM (replicate 1) or 10 µM (replicate 2)).
Dilution series were made in a polystyrene (non-binding) low-volume Corning Black Round Bottom 384-well plates (Corning 4514 or 4511). […] Wells containing 5 nm FITC-macrocycle were used to set as G-factor. All data were analyzed using Origin2023b and fitted using a four-parameter logistic model. Each measurement was performed in three independent experiments.

Assay [4] deals with T1, 14-3-3γ. The assay is described as follows: Fluorescence Anisotropy protein titration of 14-3-3γ to FITC-labeled macrocycles. To be noted: FA, 14-3-3γ titrated (2-fold from 250 µM) to FITC-labeled peptide (10 nM in Fig. 2a, 5 nM in method), 10 mM HEPES pH 7.4, 150 mM NaCl, 0.1% Tween20, 0.1% BSA, rt, mean ± SD, n = 3. In kind it is binding. Here is the method:
Wells containing 5 nm FITC-macrocycle were used to set as G-factor. All data were analyzed using Origin2023b and fitted using a four-parameter logistic model. Each measurement was performed in three independent experiments.
Background: Fluorescence polarisation rises when a labelled molecule tumbles more slowly, as on binding a larger partner.

Where [5] appears, read: SPR, 1:1 model, 25 °C, 10 mM HEPES pH 7.4, 200 mM NaCl, replicate 1.
Setting [6] is: SPR, 1:1 model, 25 °C, pH 7.4, average ± SD, n=2, SD.
[7] abbreviates: SPR, 1:1 model, 25 °C, pH 7.4, replicate 1.
Setting [8] is: SPR, 1:1 model, 25 °C, pH 7.4, replicate 2.
[9] abbreviates: replicate 1 (ChREBP from 20 μM).
The mark [10] stands for this setting: replicate 2 (ChREBP from 10 μM).

What is called Kd is the concentration at which binding is half-saturated. High values mean weaker binding, low ones tighter binding. Turning to `NCCCC[C@@H](C(N)=O)N1CCCc2cn(nn2)-c2ccc(cc2)C[C@H](NC(=O)[C@@H](N)COP(=O)(O)O)C(=O)N[C@@H](CO)CC(=O)NCCC(=O)N[C@@H](Cc2ccc([N+](=O)[O-])cc2)C1=O` [Macrocycle 3], the ΔS at 14-3-3γ [1] is 5.9 ± 0.89 cal/(mol·K). The ΔG at 14-3-3γ [1] is recorded as -9.24 ± 0.028 kcal/mol. Besides, at 14-3-3γ [1], the ΔH was -7.5 ± 0.70 kcal/mol. The molecule further came in with a Kd on 14-3-3γ [2] (KD, kinetic fit, SPR, 1:1 model, 25 °C, pH 7.4, average ± SD, n=2, SD) of 230 nM. For the same molecule, the “KD, affinity fit” value is 228 nM on 14-3-3γ [2] (25 °C, pH 7.4, replicate 1) and 253 nM on 14-3-3γ [2] (25 °C, pH 7.4, replicate 2). For the same molecule, the “ka, kinetic fit” value at 14-3-3γ [2] (setting [5]) was determined as 629000 M⁻¹ s⁻¹; on 14-3-3γ [2] (setting [8]) it was 556000 M⁻¹ s⁻¹. Also, the “kd, kinetic fit” value was 0.13 ± 0.01 s⁻¹ at 14-3-3γ [2] (setting [6]), 0.1384 s⁻¹ on 14-3-3γ [2] (setting [7]) and 0.1296 s⁻¹ at 14-3-3γ [2] (setting [8]). Further, the “KD, kinetic fit” value is 220 nM on 14-3-3γ [2] (setting [7]) and 233 nM at 14-3-3γ [2] (setting [8]). For the same molecule, the kon at 14-3-3γ [2] (SD) amounted to 590000 M⁻¹ s⁻¹. The α1 at 14-3-3/ChREBP complex (replicate 1) worked out at 11.7; at 14-3-3/ChREBP complex (replicate 2) it was 11. In addition, the values for the α at 14-3-3/ChREBP complex (setting [9]) and on 14-3-3/ChREBP complex (setting [10]) were 12.3 and 11, respectively.

For “Ac-RDKIRLNNAIWRAWYIQYVKRRKSPV-NH2 [ChREBP, acetylated ChREBP peptide purchased from GenScript, 14-3-3 client peptide]”, the “effect of client peptide on 14-3-3β/macrocycle complex” value in assay [3] was “Stabilization”.

Turning to `NCCCC[C@@H](C(=O)NCCC(=O)N[C@@H](CCCCNC(=S)Nc1ccc2c(c1)C(=O)OC21c2ccc(O)cc2Oc2cc(O)ccc21)C(N)=O)N1Cc2cn(nn2)-c2ccc(cc2)C[C@H](NC(=O)[C@@H](N)COP(=O)(O)O)C(=O)N[C@@H](CO)CC(=O)NCCC(=O)N[C@@H](Cc2ccc([N+](=O)[O-])cc2)C1=O` [Macrocycle F1], the values for the α1 at 14-3-3/ChREBP complex (replicate 1) and at 14-3-3/ChREBP complex (replicate 2) were 82.8 and 85.4, respectively. The figures for the α on 14-3-3/ChREBP complex (setting [9]) and on 14-3-3/ChREBP complex (setting [10]) were 314 and 363, respectively. The “cooperativity (α) factor” value at 14-3-3/ChREBP complex amounted to 339 ± 35.

Usually EC50 stands for the concentration needed to bring the measured effect to its halfway point. As for `NCCCC[C@@H](C(=O)NCCC(=O)N[C@@H](CCCCNC(=S)Nc1ccc2c(c1)C(=O)OC21c2ccc(O)cc2Oc2cc(O)ccc21)C(N)=O)N1CCCCc2cn(nn2)-c2ccc(cc2)C[C@H](NC(=O)[C@@H](N)COP(=O)(O)O)C(=O)N[C@@H](CO)CC(=O)NCCC(=O)N[C@@H](Cc2ccc([N+](=O)[O-])cc2)C1=O` [Macrocycle F4], the concentration giving a half-maximal response (EC50) at 14-3-3β turned out to be 2000 nM. For the same molecule, on 14-3-3/ChREBP complex, the “cooperativity (α) factor” value is 42 ± 1.

`NCCCC[C@@H](C(N)=O)N1CCCCc2cn(nn2)-c2ccc(cc2)C[C@H](NC(=O)[C@@H](N)COP(=O)(O)O)C(=O)N[C@@H](CO)CC(=O)NCCC(=O)N[C@@H](Cc2ccc([N+](=O)[O-])cc2)C1=O` [Macrocycle 4]: the ΔS at 14-3-3γ [1] was 2.9 ± 0.78 cal/(mol·K). The molecule also registered a ΔG at 14-3-3γ [1] of -8.15 ± 0.10 kcal/mol. The same molecule displayed a ΔH on 14-3-3γ [1] of -7.4 ± 0.44 kcal/mol. Also, the “KD, affinity fit” value on 14-3-3γ [2] (25 °C, pH 7.4, replicate 1) was 1180 nM; on 14-3-3γ [2] (25 °C, pH 7.4, replicate 2), 1130 nM. In addition, the “ka, kinetic fit” value on 14-3-3γ [2] (setting [5]) is 282000 M⁻¹ s⁻¹; at 14-3-3γ [2] (setting [8]), 290000 M⁻¹ s⁻¹. Moreover, the entries for the “kd, kinetic fit” value at 14-3-3γ [2] (setting [6]), at 14-3-3γ [2] (setting [7]) and on 14-3-3γ [2] (setting [8]) were 0.31 ± 0.01 s⁻¹, 0.3198 s⁻¹ and 0.2988 s⁻¹, respectively. For the same molecule, the “KD, kinetic fit” value at 14-3-3γ [2] (setting [7]) came to 1140 nM; on 14-3-3γ [2] (setting [8]), 1030 nM. The “association rate (k on) fold increase compared to pepD” value on 14-3-3γ [2] (SPR, 14-3-3γ) was determined as 3.5 fold. Also, the kon at 14-3-3γ [2] (SD) amounted to 290000 M⁻¹ s⁻¹. The values for the α1 on 14-3-3/ChREBP complex (replicate 1) and at 14-3-3/ChREBP complex (replicate 2) were 11.8 and 13.5, respectively. Also, the α came to 42.5 on 14-3-3/ChREBP complex (setting [9]) and 41.3 at 14-3-3/ChREBP complex (setting [10]). Further, the Kd on 14-3-3/ChREBP complex (setting [9]) and on 14-3-3/ChREBP complex (setting [10]) was 5000 nM throughout.

Turning to `NCCCC[C@@H](C(=O)NCCC(=O)N[C@@H](CCCCNC(=S)Nc1ccc2c(c1)C(=O)OC21c2ccc(O)cc2Oc2cc(O)ccc21)C(N)=O)N1CCc2cn(nn2)-c2ccc(cc2)C[C@H](NC(=O)[C@@H](N)COP(=O)(O)O)C(=O)N[C@@H](CO)CC(=O)NCCC(=O)N[C@@H](Cc2ccc([N+](=O)[O-])cc2)C1=O` [Macrocycle F2], at 14-3-3β, the 50% effective concentration (EC50) was found to be 7000 nM.

As for `NCCCC[C@@H](C(=O)NCCC(=O)N[C@@H](CCCCNC(=S)Nc1ccc2c(c1)C(=O)OC21c2ccc(O)cc2Oc2cc(O)ccc21)C(N)=O)N1CCc2cn(nn2)-c2ccc(cc2)C[C@H](NC(=O)[C@@H](N)COP(=O)(O)O)C(=O)N[C@@H](CO)CC(=O)NCCC(=O)N[C@@H](Cc2ccc([N+](=O)[O-])cc2)C1=O` [Macrocycle 2], the results for the α1 on 14-3-3/ChREBP complex (replicate 1) and at 14-3-3/ChREBP complex (replicate 2) were 18.8 and 8.3, respectively. Moreover, the figures for the α at 14-3-3/ChREBP complex (setting [9]) and at 14-3-3/ChREBP complex (setting [10]) were 46 and 61, respectively.

In turn, `NCCCC[C@@H](C(=O)NCCC(=O)N[C@@H](CCCCNC(=S)Nc1ccc2c(c1)C(=O)OC21c2ccc(O)cc2Oc2cc(O)ccc21)C(N)=O)N1CCCc2cn(nn2)-c2ccc(cc2)C[C@H](NC(=O)[C@@H](N)COP(=O)(O)O)C(=O)N[C@@H](CO)CC(=O)NCCC(=O)N[C@@H](Cc2ccc([N+](=O)[O-])cc2)C1=O` [Macrocycle F3] came in with a Kd on 14-3-3γ [4] of 230 ± 60 nM. For the same molecule, at 14-3-3/ChREBP complex, the “cooperativity (α) factor” value stood at 12 ± 1.
